The target in one assay is T1, human factor Xa (Homo sapiens, UniProt P00742).
T1 construct: 0.2-0.5 nM human thrombin or human factor Xa; purchased Enzyme Research Laboratories, South Bend, Ind
Description: Inhibition of Factor Xa hydrolysis of chromogenic substrate S2222 (Ki). It counts as biochemical. Particulars: purified human factor Xa, 0.10 M sodium phosphate buffer; for Ki: pH 7.5, read-out: Ki values for inhibition of Serine Proteases: Factor Xa. How it is done:
(§1) The effectiveness of compounds of the present invention as inhibitors of blood coagulation proteases was determined using purified human proteases and synthetic substrates following procedures similar to those described in Kettner et al. (1990).
(§2) For these assays, the rate of enzymatic (thrombin, Factor Xa, and Factor VIIa) hydrolysis of chromogenic substrates (S2238 (H-D-Phe-Pip-Arg-pNA), S2222, and S2288, respectively; Kabi Pharmacia, Franklin, Ohio) was measured both in the absence and presence of compounds of the present invention. […] A decrease in the rate of absorbance change at 405 nm in the presence of inhibitor is indicative of enzyme inhibition. The results of this assay are expressed as inhibitory constant, Ki.
(§3) Thrombin and Xa determinations were made in 0.10 M sodium phosphate buffer, pH 7.5, containing 0.20 M NaCl, and 0.5% PEG 8000. VIIa determinations were made in 0.05 M tris buffer, pH 7.6, containing 0.10 M NaCl, 4 mM CaCl2, and 0.1% bovine serum albumin.
(§4) Reactions were allowed to go for 30 minutes and the velocities (rate of absorbance change vs time) were measured in the time frame of 25-30 minutes. The following relationship was used to calculate Ki values. [formula] where: vo is the velocity of the control in the absence of inhibitor;
(§5) vs is the velocity in the presence of inhibitor;
(§6) I is the concentration of inhibitor;
(§7) Ki is the dissociation constant of the enzyme: inhibitor complex;
(§8) S is the concentration of substrate;
(§9) Km is the Michaelis constant.

The next assay concerns the target human thrombin (Homo sapiens, UniProt P00734). Description: Inhibition of thrombin hydrolysis of chromogenic substrate S2238 (Ki). It counts as biochemical. Further details: 0.2-0.5 nM human thrombin or human factor Xa; purchased Enzyme Research Laboratories, South Bend, Ind. Particulars: purified human thrombin, 0.10 M sodium phosphate buffer, pH 7.5, read-out: Ki values for inhibition of Serine Proteases: Trombin. How it is done: as §1, §2, §3, §4, §5, §6, §7, §8, §9

The next assay relates to Thrombin time. In words: Thrombin time (IC50), Table 80.
The next assay concerns the target T2, human factor VIIa (Homo sapiens, UniProt P08709).
T2 construct: 50 nM human factor VIIa (BiosPacific, Emeryville, Calif.); purchased BiosPacific, Emeryville, Calif
T2 sequence (P08709 213-466 limits assumed): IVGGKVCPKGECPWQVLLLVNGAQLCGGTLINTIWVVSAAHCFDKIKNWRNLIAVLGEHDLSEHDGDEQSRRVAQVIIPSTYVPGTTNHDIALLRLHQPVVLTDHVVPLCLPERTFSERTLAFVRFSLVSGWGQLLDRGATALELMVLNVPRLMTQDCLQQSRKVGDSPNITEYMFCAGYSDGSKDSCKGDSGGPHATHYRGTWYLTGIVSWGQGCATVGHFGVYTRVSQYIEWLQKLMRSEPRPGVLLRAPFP
T2 sequence (P08709 61-212 partner limits assumed): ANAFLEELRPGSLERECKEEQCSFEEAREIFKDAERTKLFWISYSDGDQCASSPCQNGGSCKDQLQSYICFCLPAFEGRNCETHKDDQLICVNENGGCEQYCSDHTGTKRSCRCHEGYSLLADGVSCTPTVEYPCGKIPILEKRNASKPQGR
Description: Inhibition of Factor VIIa hydrolysis of chromogenic substrate S2288 (Ki). Particulars: purified human factor VIIa, 0.05 M tris buffer; for Ki: pH 7.6, read-out: Ki values for inhibition of Serine Proteases: Factor VIIa; for Ki values for inhibition of Serine Proteases: Factor VIIa: pH 7.6. In kind it is biochemical. How it is done:
as §1, §2, §3, §4, §5, §6, §7, §8, §9

As a reminder, the Ki is a measure of affinity in units of concentration, obtained from inhibition or displacement. One may read the IC50 as the concentration that gives 50% inhibition. A high value points to weaker potency in that assay.

Structures can show the parent of a compound that is named as a salt.

T1 sequence (P00742 235-488 limits assumed): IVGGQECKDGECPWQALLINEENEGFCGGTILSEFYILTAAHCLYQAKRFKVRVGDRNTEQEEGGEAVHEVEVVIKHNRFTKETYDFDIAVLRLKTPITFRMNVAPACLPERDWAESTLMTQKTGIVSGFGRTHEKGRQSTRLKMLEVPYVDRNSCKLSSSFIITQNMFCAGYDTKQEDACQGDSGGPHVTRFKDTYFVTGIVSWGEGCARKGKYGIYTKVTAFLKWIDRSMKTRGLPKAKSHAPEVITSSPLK
T1 sequence (P00742 41-179 partner limits assumed): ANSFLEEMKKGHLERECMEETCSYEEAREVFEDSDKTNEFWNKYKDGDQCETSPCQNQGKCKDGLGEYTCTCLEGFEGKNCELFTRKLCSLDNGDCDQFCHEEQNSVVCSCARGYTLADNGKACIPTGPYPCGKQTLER

For `CN=C(N)NCCCC(NC(=O)CN(CCc1ccccc1)C(=O)CCc1ccccc1)B1OC2CC3CC(C3(C)C)C2(C)O1` (stereo not drawn) [Example 49.2.1, Hydrocinnamoyl-[N-(Phenethyl)-Gly]-boroArg(CH3)-C10H16 HCl], the Ki at human factor Xa and at human thrombin was < 0.5 µM throughout. The half-maximal inhibitory concentration (IC50) with Thrombin time was < 50 µM.

Take `CN(c1ccccc1)N(CC(=O)NC(CCCCN)B1OC2CC3CC(C3(C)C)C2(C)O1)C(=O)CCc1ccccc1` (stereo not drawn) [Example 54.2.1, Hydrocinnamoyl-[N-(N-(Methyl)-Phenyl)-Gly]-boroLys-C10H16 HCl]: the inhibitory constant (Ki) at human thrombin is < 0.5 µM. Further, the IC50 with Thrombin time was < 50 µM.

For the compound “Hydrocinnamoyl-[N-(Phenethyl)-Gly]-boroOrn(CH=NH)-C10H16 HCl [Example 49.1.2]”, the Ki on human thrombin was < 0.5 µM. In addition, the IC50 in the assay with Thrombin time was < 0.5 µM.

As for `NCCCCC(NC(=O)CN(C(=O)COc1ccccc1)C1CC1)B(O)O` (stereo not drawn) [Example 78.1.2, Phenoxyacetyl-[N-(Cyclopropyl)-Gly]-boroLys--OH HCl], at human thrombin, the Ki is < 0.5 µM. In addition, in the assay with Thrombin time, the concentration for half-maximal inhibition (IC50) is < 0.5 µM.

Take “Hydrocinnamoyl-[N-(N(CH3)2)-Gly]-boroOrn(CH=NH)-C10H16 HCl [Example 50.1.2]”: the Ki at human thrombin was < 0.5 µM. Moreover, the IC50 in the assay on Thrombin time was < 0.5 µM.

On to “Hydrocinnamoyl-[N-(N-(Methyl)-Phenyl)-Gly]-boroLys--OH HCl [Example 53.2.1]”, for which the inhibition constant Ki on human thrombin is < 0.5 µM. The IC50 in the assay with Thrombin time is < 50 µM.

Regarding “Hydrocinnamoyl-[N-(N(CH3)2)-Gly]-boroLys--OH HCl [Example 72.1.3]”, the inhibition constant Ki at human thrombin is < 0.5 µM. The IC50 in the assay on Thrombin time was < 0.5 µM.

On to `NCCCCC(NC(=O)CN(C(=O)Cc1cccs1)C1CC1)B(O)O` (stereo not drawn) [Example 78.1.3, Thiophenacetyl-[N-(Cyclopropyl)-Gly]-boroLys--OH HCl], for which, at human thrombin, the inhibitory constant (Ki) is < 0.5 µM. Moreover, the half-maximal inhibitory concentration (IC50) with Thrombin time was < 0.5 µM.

For the compound `CC1(C)C2CC3OB(C(CCCCN)NC(=O)CN(C(=O)COc4ccccc4)C4CC4)OC3(C)C1C2` (stereo not drawn) [Example 79.1.2, Phenoxyacetyl-[N-(Cyclopropyl)-Gly]-boroLys-C10H16 HCl], the inhibition constant Ki on human thrombin was < 0.5 µM. Moreover, in the assay with Thrombin time, the 50% inhibitory concentration (IC50) is < 0.5 µM.

Regarding “(2-(2-Cyano)-Thiophenyl)-Benzoyl-Sar-boroOrn(CH=NH)-C10H16 HCl [Example 62.4.1]”, the inhibitory constant (Ki) at human factor VIIa, at human factor Xa and on human thrombin was < 0.5 µM each time.

As to `CC(C)(CN(CC(=O)NC(CCCNC(=N)N)B1OC2CC3CC(C3(C)C)C2(C)O1)C(=O)CCc1ccccc1)c1ccccc1` (stereo not drawn) [Example 56.1.1, Hydrocinnamoyl-[N-(2,2-(Dimethyl)-Phenethyl)-Gly]-boroArg-C10H16 HCl], the Ki at human factor VIIa, at human factor Xa and at human thrombin was < 0.5 µM throughout.

As to `CN(CC(=O)NC(CCCN)B1OC2CC3CC(C3(C)C)C2(C)O1)C(=O)c1ccccc1Sc1ccccc1C#N` (stereo not drawn) [Example 62.3.1, (2-(2-Cyano)-Thiophenyl)-Benzoyl-Sar-boroOrn-C10H16 HCl], the Ki on human factor VIIa, at human factor Xa and at human thrombin was < 50 µM in each case.

For the compound “Hydrocinnamoyl-[N-(2-(Cyclopropyl)-Phenethyl)-Gly]-boroOrn(CH=NH)--OH HCl [Example 57.1.2]”, the inhibitory constant (Ki) at human factor VIIa, on human factor Xa and at human thrombin was < 0.5 µM in each case.

On to `CN(CC(=O)NC(CCCCNC(=N)N)B1OC2CC3CC(C3(C)C)C2(C)O1)C(=O)c1ccccc1Sc1ccccc1C#N` (stereo not drawn) [Example 62.3.2, (2-(2-Cyano)-Thiophenyl)-Benzoyl-Sar-borohomoArg-C10H16 HCl], for which the inhibition constant Ki is < 50 µM on human factor VIIa, < 0.5 µM on human factor Xa and < 0.5 µM on human thrombin.

Turning to `CC(C)(CN(CC(=O)NC(CCCN)B1OC2CC3CC(C3(C)C)C2(C)O1)C(=O)CCc1ccccc1)c1ccccc1` (stereo not drawn) [Example 60.3.3, Hydrocinnamoyl-[N-(2,2-(Dimethyl)-Phenethyl)-Gly]-boroOrn-C10H16 HCl], the Ki at human factor VIIa was < 50 µM; at human factor Xa, < 50 µM; on human thrombin, < 0.5 µM.

As for “Hydrocinnamoyl-Sar-Lys--C(=O)--O--(CH2)2--NH2 2 HCl [Example 61.1.3]”, the “Ki values for inhibition of Serine Proteases: Factor VIIa” value on human factor VIIa is on record as “Inactive”. Besides, the inhibitory constant (Ki) at human factor Xa and at human thrombin was < 50 µM throughout.

On to “(2-(2-Cyano)-Thiophenyl)-Benzoyl-Sar-boroLys(CH=NH)-C10H16 HCl [Example 62.4.2]”, for which the Ki was < 50 µM at human factor VIIa, < 0.5 µM on human factor Xa and < 0.5 µM at human thrombin.

Consider “Hydrocinnamoyl-[N-(N-(Methyl)-Benzyl)-Gly]-boroLys-C10H16 HCl [Example 54.2.2]”, for which the Ki at human thrombin is < 0.5 µM. Further, the 50% inhibitory concentration (IC50) in the assay on Thrombin time is < 50 µM.

In the case of `CC1(C)C2CC3OB(C(CCCCN)NC(=O)CN(CCc4ccccc4C4CCCC4)C(=O)CCc4ccccc4)OC3(C)C1C2` (stereo not drawn) [Example 54.3.2, Hydrocinnamoyl-[N-(2-(Cyclopentyl)-Phenethyl)-Gly]-boroLys-C10H16 HCl], the inhibition constant Ki at human factor VIIa is < 0.5 µM; at human factor Xa, < 50 µM; at human thrombin it was < 0.5 µM.

As for `CN(CC(=O)NC(CO)CCCCN)C(=O)CCc1ccccc1` (stereo not drawn) [Example 61.3.1, Hydrocinnamoyl-Sar-NHCH(CH20H)(CH2)4--NH2], the “Ki values for inhibition of Serine Proteases: Factor VIIa” value at human factor VIIa is given as “Inactive”. For the same compound, the “Ki values for inhibition of Serine Proteases: Factor Xa” value at human factor Xa (pH 7.5) was “Inactive”. The Ki on human thrombin is < 50 µM.

Turning to “Hydrocinnamoyl-[N-(2,2-(Dimethyl)-Phernethyl)-Gly]-boroOrn(CH=NH)-C10H16 HCl [Example 58.1.1]”, the Ki on human factor VIIa, on human factor Xa and on human thrombin was < 0.5 µM each time.

Take “Hydrocinnamoyl-[N-(2,2-(Dimethyl)-Phenethyl)-Gly]-boroOrn(CH=NH)--OH HCl [Example 57.1.1]”: the inhibitory constant (Ki) on human factor VIIa, on human factor Xa and on human thrombin was < 0.5 µM in each case.

Consider `CN(CC(=O)NC(CCCBr)B1OC2CC3CC(C3(C)C)C2(C)O1)C(=O)c1ccccc1Sc1ccccc1C#N` (stereo not drawn) [Example 62.1.1], for which the Ki at human factor VIIa, at human factor Xa and on human thrombin was < 50 µM each time.

For `CN(CC(=O)NC(CCCNC(=N)N)B1OC2CC3CC(C3(C)C)C2(C)O1)C(=O)c1ccccc1Sc1ccccc1C#N` (stereo not drawn) [Example 62.3.3, 2-(2-cyanothiophenyl)-benzoyl-Sar-BoroArg C10 H16.HCl], the Ki at human factor VIIa, on human factor Xa and on human thrombin was < 0.5 µM each time.

As for `CC(C)(C)OC(=O)NC(CCC(=O)O)C(=O)N(CCc1ccccc1)CC(=O)NC(CCCCN)B(O)O` (stereo not drawn) [Example 68.2.1, Boc-Glu-[N-(Phenethyl)-Gly]-boroLys--OH], the Ki on human factor VIIa is < 50 µM; on human factor Xa, < 50 µM; at human thrombin, < 0.5 µM.

On to `CN(CC(=O)NC(CCCCN)B1OC2CC3CC(C3(C)C)C2(C)O1)Cc1ccccc1Cn1cccc1` (stereo not drawn) [Example 64.1.3, Pinanediol N-{N-methyl-N-[2-(pyrrol-1-ylmethyl)-Benzyl]glycyl}-1-amido-5-aminopentaneboronate, hydrochloride salt], for which, on human thrombin, the inhibitory constant (Ki) was < 0.5 µM. Moreover, the IC50 in the assay with Thrombin time was < 50 µM.

With `CN(CC(=O)NC(CCCCN)B(O)O)Cc1ccccc1Cn1cccc1` (stereo not drawn) [Example 65.1.3, N-{N-methyl-N-[2-(pyrrol-1-ylmethyl)-Benzyl]glycyl}-1-amido-5-aminopentaneboronic acid, hydrochloride salt], the Ki at human thrombin was < 0.5 µM. Moreover, the half-inhibitory concentration (IC50) in the assay on Thrombin time is < 50 µM.

As to `CC1(C)C2CC3OB(C(CCCCN)NC(=O)CN(C(=O)Cc4cccs4)C4CC4)OC3(C)C1C2` (stereo not drawn) [Example 79.1.3, Thiophenacetyl-[N-(Cyclopropyl)-Gly]-boroLys-C10H16 HCl], the inhibition constant Ki at human thrombin is < 0.5 µM. Also, in the assay on Thrombin time, the concentration for half-maximal inhibition (IC50) is < 0.5 µM.
